Columns and labels:
[1] = system: Kuramochi cells labeled with mApple-H2B; assay: IncuCyte cell proliferation assay; format: cell-based; details: 72 hours
Procedure: IncuCyte® assay was used to measure the effect of disclosed compounds on cell proliferation. Fluorescent microscopy images of cells were taken immediately after compound treatment and 72 hours later. Image analysis software was used to obtain cell counts as a function of compound concentration. Kuramochi cells labeled with mApple-H2B were seeded on 384-well assay-ready plates. Plates were placed in an IncuCyte® (Sartorius) and scanned at 0 and 72 hours. IncuCyte® software was used to count the number of fluorescent nuclei in each well. The fold change in cell count from 0 to 72 hours in wells treated with increasing compounds concentrations (10 pts, 1/2 log dilution, 20 μM top concentration) was normalized to DMSO control wells. The normalized cell counts were fit with dose response curves and a […] was calculated.
Compounds with an ICp greater than 0.5 μM and less than or equal to 5.0 μM are designated as “B”.

Kuramochi cells = assay: BrdU cell proliferation assay (colorimetric ELISA); format: cell-based; details: read-out: BrdU - KURAMOCHI.1: IC50
Procedure: A BrdU assay was used as a measure of proliferation based on the DNA replication process of proliferating cells. BrdU, a pyrimidine analog, is added to the cell culture and incorporated into the DNA of proliferating cells. The presence of the BrdU analog was then measured through a colorimetric ELISA. After fixation and permeabilization of cells, peroxidase-conjugated antibody recognizing BrdU is added and allowed to incubate, followed by thorough washing to remove unbound antibody. In order to quantify the amount of bound antibody, peroxidase substrate is added and produces a color that can be measured at 450 nm.
On day −1, Kuramochi cells (Sekisui XenoTech JCRB0098) were seeded at 2,000 cells/well in columns 2-12 of a 96 well plate (Corning, CLS3596) in 150 μL media and allowed to adhere overnight at 37 degree with 5% CO2.
On day 0, the source plate was prepared by adding 10 mM compounds and performing 3-fold serial dilutions for a 10-point dose response of each compound. Using a multichannel pipette, 2 μL of the contents of the source plate were stamped into an intermediate plate with 500 μL of RPMI 1640 Media, GlutaMAX Supplement (Life Technologies, 61870127) in each well of a Nunc 96 DeepWell™ plate, non-treated 96 DeepWell plate, 2 mL/well, sterile, natural, 60/cs (Sigma Z717274) and mixed thoroughly. 50 μL from each well of this intermediate plate were added to 4 wells of a 96-well plate with previously seeded Kuramochi cells.
On day 4, the plates were developed using the BrdU ELISA Cell Proliferation Assay according to manufacturer's instructions (Roche, 11647229001). Briefly, BrdU was diluted 1:100 in Gibco®, OptiMEM® and 20 μL/well was added, shaken for 10 minutes at 350 rpm, and then returned to the incubator for 1 hour. Following incubation, the medium was discarded, and the cells were fixed by adding 200 μL of Fix/Denature solution. The anti-BrdU peroxidase antibody was diluted 1:1000 in OptiMEM, added at 100 μL/well, and incubated while shaking (350 rpm) for one hour. Three washes with PBS were performed to remove any unbound antibody, followed by the addition of 100 μL of substrate solution to each well. 25 μL/well of 1M sulfuric acid solution was then added to halt the reaction, and plates were read out using an Envision spectrophotometer (Perkin Elmer) set to read 450 nm absorbance. Background absorbance values from empty wells were subtracted from all samples and then normalized to DMSO treated wells.

CDK2/Cyclin E1 [2] = target: T1, CDK2/Cyclin E1 (Homo sapiens, UniProt P24941); assay: CDK2/Cyclin E1 Caliper LabChip EZ Reader mobility shift assay; format: biochemical; parameters: purchased Eurofins 14-475; details: read-out: Caliper Assay (CDK2/CCNE1): IC50
Method in brief: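 Mobility-shift kinase assay: compound titrations preincubated 30 min with enzyme and ATP, reaction started with 5-FAM-QSPKKG-CONH2 peptide. Final 2.5 nM CDK2/Cyclin E1, 100 μM ATP, 1.5 μM peptide, HEPES pH 7.5; stopped with EDTA after 100 min. IC50 from four-parameter fit of normalized conversion ratio.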

CDK2/Cyclin E1 [3] = target: T1, CDK2/Cyclin E1; assay: HotSpot kinase inhibition assay (radiometric, Histone H1 substrate); format: biochemical; details: 10 μM ATP, read-out: Kinase Assay (CDK2/CCNE): IC50
Procedure: Inhibition of CDK2/CCNE1 activities in the presence of compounds of the present disclosure was evaluated using the HotSpot™ assay (proprietary to Reaction Biology Corporation). In the assay, CDK2/Cyclin E1 (Signalchem C29-18G) catalyzed the transfer of radioactive phosphate to amino acid residues of Histone H1 (Sigma, H5505), which are detected radiometrically.
Reactions contained 20 mM HEPES pH 7.5, 10 mM MgCl2, 1 mM EGTA, 2 mM DTT, 0.02% Brij35, 0.02 mg/mL BSA, 0.1 mM Na3VO4, 1% DMSO, 1.5 nM CDK2/Cyclin E1, 10 μM ATP, and 20 μM Histone H1.
CDK2/Cyclin E1 and Histone H1 were mixed in reaction buffer. To this mixture dose titrations of inhibitors in 100% DMSO were added in by acoustic transfer. The compound mixtures were incubated for 20 minutes, then the kinase reactions were initiated by the addition of a mixture of ATP and ^33P ATP for final concentrations of 10 μM total ATP, 20 μM Histone H1, and 1.5 nM CDK2/Cyclin E1. The reactions were carried out for 120 minutes, then spotted on a P81 ion exchange filter paper, and extensively washed with 0.75% phosphoric acid. The resulting radioactive counts were normalized to yield % activity, plotted against compound concentration, and fit to a four-parameter equation to determine the IC50 for each compound.

SMILES	IC50 (CDK2/Cyclin E1 [2]) [µM]	IC50 (CDK2/Cyclin E1 [3]) [µM]	IC50 [1] [µM]	IC50 (Kuramochi cells) [µM]
C[C@@H](OCC1CCOCC1)[C@@H](COC(F)F)NC(=O)[C@@H]1CN(C(=O)c2cncs2)CC12CN(C(=O)[C@H]1CC1(C)C)C2 [I-441]	–	–	> 20	–
CNC(=O)[C@@H](NC(=O)[C@@H]1CN(C(=O)c2cncs2)CC12CN(C(=O)[C@H]1CC1(C)C)C2)c1nnc(C2CCCCC2)o1 [I-429]	–	–	> 20	> 10
CNC(=O)[C@@H](NC(=O)[C@H]1CN(C(=O)c2cnn(Cc3ccccc3)c2)CC12CN(C(=O)CC1CC1)C2)[C@@H](C)OCc1ccccc1 [I-8B]	1 to 10	10 to 100	–	–
CNC(=O)[C@@H](NC(=O)[C@@H]1CN(C(=O)c2cnn(Cc3ccccc3)c2)CC12CN(C(=O)CC1CC1)C2)[C@@H](C)OCc1ccccc1 [I-8A]	1 to 10	1 to 10	–	–
CNC(=O)[C@@H](NC(=O)C1CN(C(=O)c2cnn(C)c2)CC12CN(C(=O)C1CC1(C)C)C2)[C@@H](C)OCc1ccccc1 (stereo partly drawn) [I-14, N-((2S,3R)-3-(benzyloxy)-1-(methylamino)-1-oxobutan-2-yl)-2-(2,2-dimethylcyclopropane-1-carbonyl)-6-(1-methyl-1H-pyrazole-4-carbonyl)-2,6-diazaspiro[3.4]octane-8-carboxamide]	1 to 10	1 to 10	–	–
CNC(=O)[C@@H](NC(=O)C1CN(C(=O)c2cnn(CC3CCCCC3)c2)CC12CN(C(=O)C1CC1(C)C)C2)[C@@H](C)OCc1ccccc1 (stereo partly shown) [I-10]	0.1 to 1	≤ 1	–	–
CNC(=O)[C@@H](NC(=O)[C@H]1CN(C(=O)c2cnn(Cc3ccccc3)c2)CC12CN(C(=O)OC(C)(C)C)C2)[C@@H](C)OCc1ccccc1 [I-3B]	> 10	1 to 10	–	–
CNC(=O)[C@@H](NC(=O)[C@@H]1CN(C(=O)c2cnn(Cc3ccccc3)c2)CC12CN(C(=O)OC(C)(C)C)C2)[C@@H](C)OCc1ccccc1 [I-3A, tert-butyl (S)-6-(1-benzyl-1H-pyrazole-4-carbonyl)-8-(((2S,3R)-3-(benzyloxy)-1-(methylamino)-1-oxobutan-2-yl)carbamoyl)-2,6-diazaspiro[3.4]octane-2-carboxylate]	0.1 to 1	≤ 1	–	–
COC[C@H]1CCCN(C(=O)[C@@H](NC(=O)[C@@H]2CN(C(=O)c3cncs3)CC23CN(C(=O)[C@H]2CC2(C)C)C3)[C@@H](C)OCC2CCCCC2)C1 [I-196A, (S)—N-((2S,3R)-3-(cyclohexylmethoxy)-1-((S)-3-(methoxymethyl)piperidin-1-yl)-1-oxobutan-2-yl)-2-((S)-2,2-dimethylcyclopropanecarbonyl)-6-(thiazole-5-carbonyl)-2,6-diazaspiro[3.4]octane-8-carboxamide]	≤ 0.01	≤ 1	–	–
C[C@@H](OCC1CCOCC1)[C@H](NC(=O)[C@@H]1CN(C(=O)c2cncs2)CC12CN(C(=O)[C@H]1CC1(C)C)C2)C(=O)N1CCC(c2ccncc2)CC1 [I-442]	–	–	5 to 20	–
C[C@@H](OCC1CCC(F)(F)CC1)[C@H](NC(=O)[C@@H]1CN(C(=O)c2cnn(Cc3ccc(F)cc3)c2)CC12CN(C(=O)C1(C(F)(F)F)CC1)C2)C(=O)N1CCC(F)(F)CC1 [I-190A]	0.01 to 0.1	–	≤ 0.5	–
CNC(=O)[C@@H](NC(=O)C1CN(C(=O)c2cnn(Cc3ccccn3)c2)CC12CN(C(=O)C1CC1(C)C)C2)[C@@H](C)OCc1ccccc1 (stereo partly shown) [I-11]	0.1 to 1	≤ 1	–	–
C[C@@H](OCc1ccccc1)[C@H](NC(=O)C1CN(C(=O)c2cnn(Cc3ccccc3)c2)CC12CN(C(=O)C1CC1(C)C)C2)C(=O)NCCCCCN (stereo partly shown) [I-57]	–	–	–	> 10
CNC(=O)[C@@H](NC(=O)[C@H]1CN(Cc2cnn(C)c2)CC12CN(C(=O)[C@H]1CC1(C)C)C2)[C@@H](C)OCc1ccccc1 [I-47B]	> 10	–	–	> 10
CNC(=O)[C@@H](NC(=O)C1CN(C(=O)c2cnn(Cc3ccncc3)c2)CC12CN(C(=O)C1CC1(C)C)C2)[C@@H](C)OCc1ccccc1 (stereo partly shown) [I-13]	0.1 to 1	≤ 1	–	–
CNC(=O)[C@@H](NC(=O)C1CN(C(=O)c2cnn(Cc3ccccc3)c2)CC12CN(C(=O)C1CC1(C)C)C2)[C@@H](C)OC (stereo partly drawn) [I-2, 6-(1-benzyl-1H-pyrazole-4-carbonyl)-2-(2,2-dimethylcyclopropane-1-carbonyl)-N-((2S,3R)-3-methoxy-1-(methylamino)-1-oxobutan-2-yl)-2,6-diazaspiro[3.4]octane-8-carboxamide]	–	10 to 100	–	–
CNC(=O)[C@@H](NC(=O)C1CN(C(=O)c2cnn(Cc3ccccc3)c2)CC12CN(C(=O)C1CC1(C)C)C2)[C@@H](C)OCc1cccc(C#N)c1 (stereo partly shown) [I-6]	–	> 100	–	–

The next lines start with results.

IC50 (CDK2/Cyclin E1 [2]) [µM]	IC50 (CDK2/Cyclin E1 [3]) [µM]	SMILES	IC50 [1] [µM]	IC50 (Kuramochi cells) [µM]
> 10	10 to 100	Cc1ccc(CNC(=O)[C@@H]2CN(C(=O)c3cncs3)CC23CN(C(=O)[C@H]2CC2(C)C)C3)nn1 [I-378]	–	–
0.1 to 1	≤ 1	CC1(C)C[C@@H]1C(=O)N1CC2(CN(C(=O)c3cnn(Cc4ccccc4)c3)C[C@H]2C(=O)NCc2ccc(C3CCCCC3)nn2)C1 [I-377]	–	–
0.1 to 1	1 to 10	CC1(C)C[C@@H]1C(=O)N1CC2(CN(C(=O)c3cnn(Cc4ccccc4)c3)C[C@H]2C(=O)N2CCN(CC3CCCCC3)C(=O)C2)C1 [I-253]	–	–
≤ 0.01	≤ 1	C[C@@H](OCC1CCCCC1)[C@H](NC(=O)[C@@H]1CN(C(=O)c2cnn(Cc3ccccc3)c2)CC12CN(C(=O)[C@H]1CC1(C)C)C2)C(C)(C)O [I-281]	–	–
≤ 0.01	≤ 1	COC[C@H]1CCCN(C(=O)[C@@H](NC(=O)[C@@H]2CN(C(=O)c3cncs3)CC23CN(C(=O)[C@H]2CC2(C)C)C3)[C@@H](C)O[C@H](C)C2CCCCC2)C1 [I-466]	–	–
1 to 10	1 to 10	CC1(C)C[C@@H]1C(=O)N1CC2(CN(C(=O)c3cnn(Cc4ccccc4)c3)C[C@H]2C(=O)NCc2ccc(Cl)nn2)C1 [I-376]	–	–
> 10	–	CC(C)O[C@H]1C[C@@H](NC(=O)[C@@H]2CN(C(=O)c3cnn(Cc4ccccc4)c3)CC23CN(C(=O)[C@H]2CC2(C)C)C3)C1 [I-234]	–	> 10
≤ 0.01	≤ 1	COC[C@H]1CCCN(C(=O)[C@@H](NC(=O)[C@@H]2CN(C(=O)c3cncs3)CC23CN(C(=O)[C@H]2CC2(C)C)C3)[C@@H](C)O[C@H](C)C2CCCCC2)C1 [I-367]	–	–
0.1 to 1	1 to 10	CC1(C)C[C@@H]1C(=O)N1CC2(CN(C(=O)c3cnn(Cc4ccccc4)c3)C[C@H]2C(=O)N2CC[C@H](OCC3CCCCC3)C2)C1 [I-256]	–	–
0.1 to 1	≤ 1	Cc1ccc(CNC(=O)[C@@H]2CN(C(=O)c3cnn(Cc4ccccc4)c3)CC23CN(C(=O)[C@H]2CC2(C)C)C3)nn1 [I-252]	–	–

Reference: patent US20240174680A1, “CDK2 INHIBITORS AND METHODS OF USING THE SAME” (Cedilla Therapeutics, Inc., priority 2021, published 2024)
